Measurements taken from patent US20210040074A1 (The United States of America,as represented by the …, priority 2018, published 2021).

Legend:
D5 [1] = target: T1, D5 (Homo sapiens, UniProt P21918); assay: D5 cAMP assay; settings: fold change of dopamine EC50, 50 μM compound
Procedure: (§2) cAMP Accumulation Assay. Assays were performed on D1R-HEK293 (Codex Biosolutions, Gaithersburg, Md.) cells stably expressing the human D1R. HEK293 cell lines were maintained in Dulbecco's modified Eagles medium, supplemented with 10% fetal bovine serum, 100 U/ml penicillin, 100 μg/ml streptomycin, 1 mM sodium pyruvate, and 250 μg/ml G418 and incubated at 37° C., 5% CO2, and 90% humidity. […] After 18-24 h incubation at 37° C., 5% CO2, and 90% humidity, the media was removed and replaced with 5 μL/well PBS. […] Briefly, antibody and working solution was added to each well according to the manufacturer's protocol, and incubated in the dark at room temperature for 60 min. Following incubation, enzyme acceptor reagent was added to the plates and luminescence (RLU) was measured (FDSS μCell, Hamamatsu Photonics K. K., Bridgewater, N.J.) following a 3 h incubation in the dark at room temperature.

D5 [2] = target: T1, D5; assay: D5R β-arrestin recruitment assay (DiscoverX PathHunter, CHO cells); format: cell-based; parameters: host or cells: CHO-K1; settings: for D5 Beta-Arrestin: DA + 50 μM PAM, Fold Change EC50: fold change of dopamine EC50, 50 μM compound; for DA + 50 μM PAM, Fold Change EC50: fold change of DA EC50 with 50 μM PAM, Dopamine D5-β-arrestin Assay
Procedure: (§1) β-arrestin Recruitment Assay. […] Following 18-24 h of incubation, the cells were treated with the indicated concentrations of compound in PBS buffer containing 0.2 mM sodium metabisulfite, and incubated at 37° C. for 90 min. DiscoverX reagent was added to cells according to the manufacturer's protocol, followed by a 60 min incubation in the dark at room temperature. Luminescence was measured on a Hamamatsu FDSS μ-Cell reader (Hamamatsu, Bridgewater, N.J.) and data were collected using the FDSS software.
Each PAM was also examined in the absence of DA as an agonist, as indicated.

D4R = target: T2, D4R (Homo sapiens, UniProt P21917); assay: D4 β-arrestin recruitment assay (DiscoverX PathHunter, CHO-K1 cells); format: cell-based; parameters: inferred from the same PathHunter system described for D1R and D5R; host or cells: CHO-K1; settings: for D4 Beta-Arrestin: DA + 50 μM PAM, Fold Change EC50: fold change of dopamine EC50, 50 μM compound; for DA + 50 μM PAM, Fold Change EC50: fold change of DA EC50 with 50 μM PAM, Dopamine D4-β-arrestin Assay
T2 sequence (P21917 1-419): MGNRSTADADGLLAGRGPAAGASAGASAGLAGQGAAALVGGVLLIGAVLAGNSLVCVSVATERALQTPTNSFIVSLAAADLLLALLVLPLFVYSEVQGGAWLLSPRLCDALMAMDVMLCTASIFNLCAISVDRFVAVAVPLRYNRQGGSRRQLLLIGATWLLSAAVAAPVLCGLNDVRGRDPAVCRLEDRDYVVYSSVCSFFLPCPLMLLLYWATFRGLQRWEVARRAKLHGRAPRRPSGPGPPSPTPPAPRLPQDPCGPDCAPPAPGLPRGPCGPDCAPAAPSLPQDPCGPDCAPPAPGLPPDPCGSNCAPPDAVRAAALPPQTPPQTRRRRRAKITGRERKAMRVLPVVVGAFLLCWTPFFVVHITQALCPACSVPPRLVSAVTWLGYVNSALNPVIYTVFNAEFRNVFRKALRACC
Procedure: as §1, with “Assay. Agonist-mediated recruitment of β-arrestin-2 to all five DARs was determined using the DiscoveRx PathHunter complementation assay (DiscoverX Inc, Fremont, Calif.), as previously described (Free, et. al., 2014; Conroy, et. al., 2015).” for “Assay.”

human D1R [3] = target: T3, human D1R (Homo sapiens, UniProt P21728); assay: D1 cAMP accumulation assay (D1R-HEK293 cells, DiscoverX HitHunter); settings: fold change of dopamine EC50, 50 μM compound
T3 sequence (P21728 whole entry): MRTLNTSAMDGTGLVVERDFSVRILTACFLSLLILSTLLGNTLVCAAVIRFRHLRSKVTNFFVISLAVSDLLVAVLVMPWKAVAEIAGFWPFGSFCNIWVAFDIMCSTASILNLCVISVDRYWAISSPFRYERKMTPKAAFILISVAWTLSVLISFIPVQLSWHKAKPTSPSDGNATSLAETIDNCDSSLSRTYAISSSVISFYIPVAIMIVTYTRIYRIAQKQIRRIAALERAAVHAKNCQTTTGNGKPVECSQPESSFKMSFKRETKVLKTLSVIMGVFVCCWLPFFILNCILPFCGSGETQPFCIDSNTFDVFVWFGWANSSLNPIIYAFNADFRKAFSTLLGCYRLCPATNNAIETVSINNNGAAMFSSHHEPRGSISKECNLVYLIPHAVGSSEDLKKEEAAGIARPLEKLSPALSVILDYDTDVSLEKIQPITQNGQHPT
Procedure: as §2

human D1R [4] = target: T3, human D1R; assay: D1R β-arrestin recruitment assay (DiscoverX PathHunter, CHO-K1 cells); settings: for D1 Beta-Arrestin: DA + 50 μM PAM, Fold Chg EC50: fold change of dopamine EC50, 50 μM compound; for DA + 50 μM PAM, Fold Change EC50: fold change of DA EC50 with 50 μM PAM, Dopamine D1-β-arrestin Assay
Source text: The DiscoverX PathHunter β-Arrestin Assay was used to measure β-arrestin reuitment to the D1R following the manufacturer's instructions.

T1 sequence (P21918 whole entry): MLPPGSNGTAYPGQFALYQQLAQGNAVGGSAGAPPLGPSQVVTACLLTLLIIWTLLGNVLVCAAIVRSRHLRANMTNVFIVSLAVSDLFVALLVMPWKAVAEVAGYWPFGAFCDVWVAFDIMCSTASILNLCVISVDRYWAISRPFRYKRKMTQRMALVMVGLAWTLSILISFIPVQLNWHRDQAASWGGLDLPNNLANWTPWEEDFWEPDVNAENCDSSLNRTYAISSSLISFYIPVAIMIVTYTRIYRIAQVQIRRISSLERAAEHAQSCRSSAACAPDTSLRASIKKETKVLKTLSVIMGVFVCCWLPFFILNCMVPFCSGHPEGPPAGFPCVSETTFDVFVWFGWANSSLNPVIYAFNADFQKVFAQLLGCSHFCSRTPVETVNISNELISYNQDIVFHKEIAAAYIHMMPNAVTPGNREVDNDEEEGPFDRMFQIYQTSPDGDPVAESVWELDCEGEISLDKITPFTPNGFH

SMILES	D5 cAMP: DA + 50 μM PAM, Fold Change EC50 (D5 [1])	D5 Beta-Arrestin: DA + 50 μM PAM, Fold Change EC50 (D5 [2])	D4 Beta-Arrestin: DA + 50 μM PAM, Fold Change EC50 (D4R)	D1 cAMP: DA + 50 μM PAM, Fold Chg EC50 (human D1R [3])	D1 Beta-Arrestin: DA + 50 μM PAM, Fold Chg EC50 (human D1R [4])	PAM activity at the D5 receptor (D5 [2]; 50 μM compound)	fold change of dopamine EC50 for β-arrestin recruitment to D5R (D5 [2]; 50 μM compound)	DA + 50 μM PAM, Fold Change EC50 (D5 [2])	DA + 50 μM PAM, Fold Change EC50 (human D1R [4])	DA + 50 μM PAM, Fold Change EC50 (D4R)
CC(C)Cc1nc2c(c(=O)c3ccccc3n2C)c(=O)n1-c1ccccc1 [Compound 21]	2.22	4.56	0.62	–	–	–	–	–	–	–
NC(=O)c1c(NC(=O)c2cccnc2)sc2c1CCC(c1ccccc1)C2 (stereo not drawn) [Compound 40]	–	0.48	0.68	0.7	1.97	–	–	–	–	–
CC1CCc2c(sc(NC(=O)c3ccncc3)c2C(N)=O)C1 (stereo not drawn) [Compound 33]	1.57	1.86	0.81	1.53	0.97	–	–	–	–	–
Cn1c2ccccc2c(=O)c2c(=O)n(-c3cccc(Cl)c3)c(CC3CCCCC3)nc21 [Compound 22]	0.73	1.40	1.67	–	–	–	–	–	–	–
CC(C)(C)C1CCc2c(sc(NC(=O)c3ccc4ccccc4n3)c2C(N)=O)C1 (stereo not drawn) [Compound 32]	1.25	0.92	0.73	1.28	0.77	–	–	–	–	–
Cc1ccc(-n2c(CC(C)C)nc3c(c(=O)c4ccccc4n3C)c2=O)cc1 [Compound 5]	2.23	1.32	1.06	–	–	none of these analogs have PAM activity	1.3 fold	–	–	–
Cn1c2ccccc2c(=O)c2c(=O)n(-c3ccccc3)c(C3CC3)nc21 [Compound 23]	0.57	2.58	1.32	–	–	–	–	–	–	–
CCOC(=O)c1c(NC(=O)c2cccnc2)sc2c1CCC(C(C)(C)C)C2 (stereo not drawn) [Compound 39]	–	0.65	2.03	1.04	3.01	–	–	–	–	–
NC(=O)c1c(NC(=O)c2ccccn2)sc2c1CCCC2 [Compound 36]	0.86	0.26	1.19	2.50	0.83	–	–	–	–	–
Cn1c2ccccc2c(=O)c2c(=O)n(-c3ccccc3)c(CC3CCCCC3)nc21 [Compound 20]	1.30	2.38	2.14	–	–	–	–	–	–	–
CC1CCc2c(sc(NC(=O)c3cccnc3)c2C(N)=O)C1 (stereo not drawn) [Compound 35]	0.76	1.06	1.07	1.79	0.97	–	–	–	–	–
Cn1c2ccccc2c(=O)c2c(=O)n(-c3cccc(Cl)c3)c(CC3CCCCC3)nc21 [Compound 18]	0.34	1.35	1.57	–	–	–	–	–	–	–
Cn1c2ccccc2c(=O)c2c(=O)n(-c3ccc(Cl)cc3)c(CC3CCCCC3)nc21 [Compound 17]	1.43	1.09	1.38	–	–	–	–	–	–	–
COc1ccc(-n2c(CC3CCCCC3)nc3c(c(=O)c4ccccc4n3C)c2=O)cc1Cl [Compound 19]	1.04	1.29	1.78	–	–	–	–	–	–	–
Cn1c2ccccc2c(=O)c2c(=O)n(-c3ccccc3)c(C3CCCC3)nc21 [Compound 24]	1.26	4.16	1.26	–	–	–	–	–	–	–
CC(C)(C)C1CCc2c(sc(NC(=O)c3cncc(Br)c3)c2C(N)=O)C1 (stereo not drawn) [Compound 29]	0.66	1.68	1.20	1.30	1.05	–	–	–	–	–
CC1CCc2c(sc(NC(=O)c3ccc(O)cc3)c2C(N)=O)C1 (stereo not drawn) [R4=NH2; R5=NHCO-4-HOPh; R6=Me]	–	–	–	–	–	–	–	0.87	1.76	1.2
CC1CCc2c(sc(NC(=O)c3ccc4ccccc4n3)c2C(N)=O)C1 (stereo not drawn) [Compound 31]	0.45	0.83	1.34	1.20	1.35	–	–	–	–	–
CC1CCc2c(sc(NC(=O)c3ccccn3)c2C(N)=O)C1 (stereo not drawn) [Compound 37]	1.64	0.47	1.06	1.61	1.05	–	–	–	–	–
NC(=O)c1c(NC(=O)c2cccnc2)sc2c1CCCC2 [R4=NH2; R5=NHCO-3-pyridyl; R6=H]	–	–	–	–	–	–	–	1.03	1.88	1.21
CC(C)(C)C1CCc2c(sc(NC(=O)c3cccnc3)c2C(N)=O)C1 (stereo not drawn) [Compound 38]	–	0.78	2.26	2.29	10.35	–	–	–	–	–
CC(C)(C)C1CCc2c(sc(NC(=O)c3ccccn3)c2C(N)=O)C1 (stereo not drawn) [Compound 30]	0.60	0.48	0.43	1.31	1.05	–	–	–	–	–
